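Where inhibition never reached the appropriate level, the endpoint shown equals the highest concentration tested. Otherwise, values were interpolated linearly from a five-concentration, 48-hour dose response in 96-well plates. Abbreviation: GI50, concentration required for 50% inhibition of growth.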 The source made the active and inactive calls. No stated cut-off is given here; in the data, active = GI50 up to about 1.1 µM and inactive = higher.
Tests used:
Experiment in all cases: growth of human tumour cells (NCI), 48 h
ACHN = tested on: ACHN
HL-60 = tested on: HL-60
K562 = tested on: K562
LOX IMVI = tested on: LOX IMVI
MOLT-4 = tested on: MOLT-4
NCI-H460 = tested on: NCI-H460
OVCAR-4 = tested on: OVCAR-4
OVCAR-5 = tested on: OVCAR-5
RXF 393 = tested on: RXF 393
SN12C = tested on: SN12C
SNB-78 = tested on: SNB-78
SR = tested on: SR
U-251 = tested on: U-251
UACC-62 = tested on: UACC-62
RPMI-8226 = tested on: RPMI-8226
A498 = tested on: A498
NCI-H226 = tested on: NCI-H226
Hs-578T = tested on: Hs-578T
MDA-MB-231 = tested on: MDA-MB-231
MDA-MB-435 = tested on: MDA-MB-435

Measured: GI50

O=C(NCc1ccncc1)C1COc2cc(-c3cc(=O)c4ccccc4o3)ccc2O1 (stereo not given)
inactive: ACHN > 100 µM | HL-60 > 100 µM | K562 > 100 µM | LOX IMVI > 100 µM | MOLT-4 > 100 µM | NCI-H460 > 100 µM | OVCAR-4 > 100 µM | OVCAR-5 > 100 µM | RXF 393 > 100 µM | SN12C > 100 µM | SNB-78 > 100 µM | SR > 100 µM | U-251 > 100 µM | UACC-62 > 100 µM

C[C@]12CC[C@@H]3c4ccccc4CC[C@H]3[C@@H]1CC[C@@H]2O
inactive: ACHN > 100 µM | HL-60 > 10 µM | K562 32.1 µM | LOX IMVI 77.4 µM | MOLT-4 45.5 µM | NCI-H460 38.5 µM | RPMI-8226 53.2 µM | RXF 393 27.6 µM | SN12C 83 µM | SNB-78 > 100 µM | SR 56.1 µM | U-251 > 100 µM | UACC-62 42.6 µM

N/C(=N\O)N/N=C\c1c2ccccc2c(Cl)c2ccccc12
inactive: A498 13.5 µM | ACHN 4.33 µM | HL-60 2.19 µM | K562 3.72 µM | LOX IMVI 2.55 µM | MOLT-4 4.18 µM | NCI-H226 2.13 µM | NCI-H460 2.23 µM | OVCAR-4 3.78 µM | OVCAR-5 3.05 µM | RPMI-8226 3.3 µM | RXF 393 1.22 µM | SN12C 6.79 µM | SNB-78 12 µM | U-251 7.5 µM | UACC-62 1.92 µM

CCOC(=O)C1CCCCN1C(=O)OCc1ccccc1 (stereo not given)
inactive: A498 > 100 µM | ACHN > 100 µM | HL-60 41 µM | K562 > 100 µM | MOLT-4 > 100 µM | NCI-H226 27.3 µM | NCI-H460 > 100 µM | OVCAR-4 > 100 µM | OVCAR-5 > 100 µM | RXF 393 > 100 µM | SN12C > 100 µM | SNB-78 > 100 µM | SR > 100 µM | U-251 86.1 µM | UACC-62 > 100 µM

CC(O)c1ccc(C(O)/C(=N\NC(=O)c2ccncc2)c2nc3ccc([N+](=O)[O-])cc3nc2O)cc1 (stereo not given)
inactive: ACHN 42.4 µM | HL-60 50.5 µM | K562 40.8 µM | LOX IMVI 30 µM | MOLT-4 > 100 µM | NCI-H226 > 100 µM | NCI-H460 > 100 µM | OVCAR-4 > 100 µM | OVCAR-5 > 100 µM | RPMI-8226 > 100 µM | RXF 393 > 100 µM | SN12C > 100 µM | SNB-78 > 100 µM | SR 75 µM | U-251 > 100 µM | UACC-62 59.2 µM

CCSc1nc(-c2ccc(OC)cc2)c(C#N)c(=O)n1C1OCC(OC(C)=O)C(OC(C)=O)C1OC(C)=O (stereo not given)
inactive: A498 > 100 µM | ACHN > 100 µM | K562 > 100 µM | MOLT-4 43.5 µM | NCI-H226 > 100 µM | NCI-H460 > 100 µM | OVCAR-4 > 100 µM | OVCAR-5 > 100 µM | RPMI-8226 78.5 µM | RXF 393 > 100 µM | SN12C > 100 µM | SNB-78 > 100 µM | SR > 100 µM | U-251 > 100 µM | UACC-62 > 100 µM

N#C/C(=C\c1ccc2[nH]ccc2c1)C(=O)NCCCCNC(=O)/C(C#N)=C/c1ccc2[nH]ccc2c1
inactive: A498 > 31.6 µM | ACHN > 31.6 µM | HL-60 > 31.6 µM | Hs-578T > 10 µM | K562 > 31.6 µM | LOX IMVI > 31.6 µM | MDA-MB-231 > 10 µM | MDA-MB-435 > 10 µM | MOLT-4 > 31.6 µM | NCI-H226 > 31.6 µM | NCI-H460 > 31.6 µM | OVCAR-4 > 31.6 µM | OVCAR-5 > 31.6 µM | RPMI-8226 > 10 µM | RXF 393 > 10 µM | SN12C > 31.6 µM | SNB-78 > 100 µM | SR > 31.6 µM | U-251 > 31.6 µM | UACC-62 > 31.6 µM

COc1ccc(OC)c(NC(=O)C(=O)CC(=O)c2sc(-n3nc(-c4ccccc4)cc3-c3ccccc3)nc2C)c1
inactive: A498 > 100 µM | HL-60 > 100 µM | K562 > 100 µM | LOX IMVI > 100 µM | MOLT-4 > 100 µM | NCI-H226 > 100 µM | NCI-H460 > 100 µM | OVCAR-4 > 100 µM | OVCAR-5 > 100 µM | RPMI-8226 > 100 µM | RXF 393 > 100 µM | SN12C > 100 µM | SNB-78 > 100 µM | SR 27.7 µM | U-251 > 100 µM | UACC-62 > 100 µM

CCOc1ccccc1NC(=O)C(=O)CC(=O)c1sc(Nc2nnc(-c3ccc(Cl)c(Cl)c3)o2)nc1C
inactive: A498 > 100 µM | ACHN > 100 µM | HL-60 > 100 µM | K562 > 100 µM | LOX IMVI 31.8 µM | MOLT-4 > 100 µM | NCI-H226 > 100 µM | NCI-H460 51.8 µM | OVCAR-4 > 100 µM | OVCAR-5 > 100 µM | RPMI-8226 64.3 µM | RXF 393 > 100 µM | SN12C > 100 µM | SNB-78 > 100 µM | SR > 100 µM | U-251 18.8 µM | UACC-62 > 100 µM

N#C/C(=C\c1ccccc1F)C(=O)c1ccccc1
inactive: A498 > 100 µM | ACHN > 100 µM | HL-60 66.7 µM | K562 > 100 µM | LOX IMVI > 100 µM | MOLT-4 > 100 µM | OVCAR-4 > 100 µM | OVCAR-5 > 100 µM | RPMI-8226 > 100 µM | SN12C > 100 µM | SNB-78 > 100 µM | SR > 100 µM | U-251 > 100 µM | UACC-62 > 100 µM

CCN(CC)C(=O)c1c(Cl)cc(N(CC)CC)oc1=O
inactive: A498 > 100 µM | ACHN > 100 µM | HL-60 > 100 µM | K562 > 100 µM | LOX IMVI > 100 µM | MOLT-4 > 100 µM | NCI-H226 > 100 µM | NCI-H460 > 100 µM | OVCAR-4 > 100 µM | RPMI-8226 > 100 µM | RXF 393 > 100 µM | SN12C > 100 µM | SNB-78 > 100 µM | SR > 100 µM | U-251 > 100 µM | UACC-62 > 100 µM

C#CCOCn1cnc2c(Cl)ncnc21
inactive: A498 > 100 µM | ACHN > 100 µM | K562 59.6 µM | LOX IMVI 52.6 µM | MOLT-4 67.5 µM | NCI-H226 > 100 µM | NCI-H460 > 100 µM | OVCAR-4 > 100 µM | OVCAR-5 > 100 µM | RPMI-8226 > 100 µM | SN12C > 100 µM | SNB-78 > 100 µM | SR 50.9 µM | U-251 > 100 µM | UACC-62 > 100 µM

CCCCCCC(=O)C/C(CCC(=O)N(Cc1ccccc1)Cc1ccccc1)=N\NC(N)=O
inactive: A498 > 100 µM | ACHN > 100 µM | HL-60 > 100 µM | K562 > 100 µM | LOX IMVI > 100 µM | MOLT-4 > 100 µM | NCI-H226 > 100 µM | NCI-H460 > 100 µM | OVCAR-4 > 100 µM | OVCAR-5 > 100 µM | RPMI-8226 > 100 µM | RXF 393 > 100 µM | SN12C > 100 µM | SNB-78 > 100 µM | SR > 100 µM | U-251 > 100 µM | UACC-62 > 100 µM

COC1(OC)CC2C(=O)N(Cc3ccccc3)C1C=C2S(=O)(=O)c1ccccc1 (stereo not given)
inactive: A498 20 µM | ACHN 20.8 µM | HL-60 11.7 µM | K562 22.5 µM | LOX IMVI 13.4 µM | MOLT-4 16.5 µM | NCI-H226 27.9 µM | NCI-H460 18.2 µM | OVCAR-4 20.5 µM | RPMI-8226 21 µM | RXF 393 12.7 µM | SN12C 16.4 µM | SNB-78 21.8 µM | SR 15 µM | U-251 15.5 µM | UACC-62 16.7 µM

CC(=O)Nc1ccccc1-c1nc2ccccc2nc1-c1ccccc1
inactive: A498 > 100 µM | ACHN > 100 µM | HL-60 > 100 µM | K562 > 100 µM | MOLT-4 > 100 µM | NCI-H460 > 100 µM | OVCAR-4 > 100 µM | RPMI-8226 > 100 µM | RXF 393 > 100 µM | SN12C > 100 µM | SNB-78 > 100 µM | SR > 100 µM | U-251 > 100 µM | UACC-62 > 100 µM

O=C1CCCCC1CN1CCCC1 (stereo not given)
inactive: A498 > 100 µM | ACHN > 100 µM | HL-60 > 10 µM | K562 > 100 µM | LOX IMVI > 100 µM | MOLT-4 > 100 µM | NCI-H226 > 100 µM | NCI-H460 > 100 µM | OVCAR-4 > 100 µM | OVCAR-5 > 100 µM | RPMI-8226 84.3 µM | SN12C > 100 µM | SNB-78 > 100 µM | SR 38.7 µM | U-251 > 100 µM

CN1CC[C@]2(C)c3ccc(O)cc3CC3CCCC1C32C (stereo not given in full)
inactive: A498 > 100 µM | ACHN > 100 µM | HL-60 > 100 µM | K562 > 100 µM | LOX IMVI > 100 µM | MOLT-4 > 100 µM | NCI-H226 > 100 µM | NCI-H460 > 100 µM | OVCAR-5 > 100 µM | RPMI-8226 > 100 µM | RXF 393 > 100 µM | SN12C > 100 µM | SNB-78 > 100 µM | SR > 100 µM | U-251 > 100 µM | UACC-62 > 100 µM
